Data: US9580470B2, “High-purity cyclopeptide crystal as well as preparation method and use thereof” (SHANGHAI TECHWELL BIOPHARMACEUTICAL CO., LTD., priority 2012, dated 2017)

Test: Purity and stability test (content of impurities on storage)
Format: physicochemical
Details: for Content of impurities in the initial sample: before storage; for 0-8° C., content of impurities in the sample at 7 day: sealed containers at 0-8° C. for 7 days
Protocol: In this example, the purity and stability of the samples obtained in Comparative Examples and Examples were compared. The specific method is described as follows:
And then the content of impurities in each sample was analyzed.

| SMILES | Content of impurities in the initial sample [%] | 0-8° C., content of impurities in the sample at 7 day [%] |
| --- | --- | --- |
| CC(O)C1NC(=O)C(N)CC(O)C(O)NC(=O)C2C(O)C(C)CN2C(=O)C(C(O)CC(N)=O)NC(=O)C(C(O)C(O)c2ccc(O)c(OS(=O)(=O)O)c2)NC(=O)C2CC(O)CN2C1=O (single isomer, unassigned) [Comparative Example 3] | 1.9 | 3.2 |
| C[C@@H](O)[C@@H]1NC(=O)[C@@H](N)C[C@@H](O)[C@@H](O)NC(=O)[C@@H]2[C@@H](O)[C@@H](C)CN2C(=O)[C@H]([C@H](O)CC(N)=O)NC(=O)[C@H]([C@H](O)[C@@H](O)c2ccc(O)c(OS(=O)(=O)O)c2)NC(=O)[C@@H]2C[C@@H](O)CN2C1=O [Example 1] | 2.5 | 4.8 |
| CC(O)C1NC(=O)C(N)CC(O)C(O)NC(=O)C2C(O)C(C)CN2C(=O)C(C(O)CC(N)=O)NC(=O)C(C(O)C(O)c2ccc(O)c(OS(=O)(=O)O)c2)NC(=O)C2CC(O)CN2C1=O (single isomer, unassigned) [Comparative Example 5] | 2.1 | 3.6 |
| CC(O)C1NC(=O)C(N)CC(O)C(O)NC(=O)C2C(O)C(C)CN2C(=O)C(C(O)CC(N)=O)NC(=O)C(C(O)C(O)c2ccc(O)c(OS(=O)(=O)O)c2)NC(=O)C2CC(O)CN2C1=O (single isomer, unassigned) [Comparative Example 2] | 1.9 | 3.4 |
| CC(O)C1NC(=O)C(N)CC(O)C(O)NC(=O)C2C(O)C(C)CN2C(=O)C(C(O)CC(N)=O)NC(=O)C(C(O)C(O)c2ccc(O)c(OS(=O)(=O)O)c2)NC(=O)C2CC(O)CN2C1=O (single isomer, unassigned) [Comparative Example 6] | 2.4 | 4.1 |
| CC(O)C1NC(=O)C(N)CC(O)C(O)NC(=O)C2C(O)C(C)CN2C(=O)C(C(O)CC(N)=O)NC(=O)C(C(O)C(O)c2ccc(O)c(OS(=O)(=O)O)c2)NC(=O)C2CC(O)CN2C1=O (single isomer, unassigned) [Comparative Example 7] | 2.4 | 4.7 |
| CC(O)C1NC(=O)C(N)CC(O)C(O)NC(=O)C2C(O)C(C)CN2C(=O)C(C(O)CC(N)=O)NC(=O)C(C(O)C(O)c2ccc(O)c(OS(=O)(=O)O)c2)NC(=O)C2CC(O)CN2C1=O (single isomer, unassigned) [Comparative Example 4] | 1.8 | 2.9 |
